Data published in patent publication US20220089600A1, “TGFß INHIBITOR AND PRODRUGS” (FUNDACIÓ INSTITUT DE RECERCA BIOMÈDICA (IRB BARCELONA), priority 2018, published 2022).
pIC50, pKd: −log10 of the molar value.

Tests used:
[1] = test system: MTO129 established liver metastases; test: Overt metastatic disease model, alone or with anti-PD-1; settings: monotherapy
Description: For this purpose, the protocol of mouse inoculation with MTO129 described for FIG. 13 was used, but here treatment with compounds started at day 16 post-inoculation. At this time point mice had developed large metastases. Treatments finished at day 24. […] In these experiments, the vast majority (>90%) of control mice die of liver metastatic disease.
Mouse tumor organoids (MTO129) were developed as indicated in example 3. C57BL/6J mice were purchased from Janvier at 6 weeks of age and injected at 7-8 weeks. For transplantation of MTO129 into the liver, cells were trypsinized (digesting the matrix and disaggregating organoids into single cells), counted and 300,000 cells were injected in HBSS (Hank's Balanced Salt Solution, Lonza) into the spleen, thus delivering the cells directly into the portal vein that connects the intestine to the liver. […] Treatment with compounds occurred by gavage (tube feeding) and mice were treated twice a day with 150 μl of compound suspension in vehicle. […] Control mice were given gavage vehicle and IgG2a isotype control antibody.
At this time point, mice had developed large liver metastases. Treatments finished at day 24. […] In these experiments, the vast majority (>90%) of control mice die of liver metastatic disease.

[2] = test system: TGFβ signaling (12×CAGA-Firefly_Luc reporter) in HEK293T cells; test: In vitro CAGA-Luciferase reporter assay; assay type: cell-based; settings: Homo sapiens, HEK-293T, 5 ng/ml TGFB1, 16h, read-out: IC50, TGFβ signaling inhibition (CAGA-Luciferase)
Description: HEK293T cells were purchased from the ATCC and cultured in DMEM supplemented with L-glutamine and 10% fetal bovine serum (Life Technologies) at 37° C. and 5% CO2. The cells were seeded in 24-well plates and transfected with plasmids encoding 12×CAGA-Firefly_Luc and Tk-Renilla_Luc (75 and 10 ng per well, respectively), using polyethylenimine (Polysciences) as transfection reagent. After 7h, medium was replaced for starvation medium (DMEM+0.05% FBS). […] Luciferase activity was measured 16h later using the Dual Luciferase Assay kit (Promega): media were aspirated, and cells were lysed in 200 μl passive lysis buffer (kit) for 20 minutes. Bioluminescence was measured in a Berthold Lumat LB6507 luminometer (18 μl reagents, 10 seconds measurements). […]
When adding the luciferase substrate (luciferin) to the cell lysates, emission of light implies an active TGF-β pathway due to the production of pSMAD2/3-SMAD4, whereas no or little observed light would imply inhibition of the pathway by the inhibitor. Finally, the results could be normalized by the addition of Stop & Glo® which quenches the firefly luciferase enzyme/substrate and activates the Renilla transfection control, producing light which was again measured by the luminometer and used to normalize the data.

ALK5 (TGFBR1) = molecular target: T1, ALK5 (TGFBR1) (Homo sapiens, UniProt P36897); test: KINOMEscan affinity, competition binding
T1 sequence (P36897 34-503): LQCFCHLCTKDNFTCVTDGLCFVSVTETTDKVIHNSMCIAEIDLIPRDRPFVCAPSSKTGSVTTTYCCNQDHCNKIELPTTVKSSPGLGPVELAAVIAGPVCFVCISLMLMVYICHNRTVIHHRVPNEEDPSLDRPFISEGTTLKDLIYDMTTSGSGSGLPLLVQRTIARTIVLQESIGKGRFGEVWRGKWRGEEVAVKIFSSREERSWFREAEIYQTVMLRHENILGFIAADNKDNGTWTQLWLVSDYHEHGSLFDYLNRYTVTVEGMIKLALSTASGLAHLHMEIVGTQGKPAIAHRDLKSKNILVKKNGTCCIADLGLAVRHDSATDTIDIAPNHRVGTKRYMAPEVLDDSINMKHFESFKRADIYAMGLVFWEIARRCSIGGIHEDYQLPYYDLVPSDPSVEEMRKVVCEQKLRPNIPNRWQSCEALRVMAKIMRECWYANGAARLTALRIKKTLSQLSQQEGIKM
Description: (§1) The affinity, measured as Kd (dissociation constants), of the compound of formula I for the ALK family was determined by using the KINOMEscan™ Technology from Eurofins. Selectivity in front of ALK1 (ACVRL1), ALK2 (ACVR1), ALK3 (BMPR1A), ALK4 (ACVR1B), ALK6 (BMPR1B), ACVR2B and TGFβR2 was determined.
(§2) The assay is performed by combining three components: DNA-tagged kinase; immobilized ligand; and a test compound. The ability of the test compound to compete with the immobilized ligand is measured via quantitative PCR of the DNA tag.
(§3) Test compounds were prepared as 111× stocks in 100% DMSO. Kds were determined using an 11-point 3-fold compound dilution series with three DMSO control points being the top concentration 30 μM. […] The compounds were then diluted directly into the assays such that the final concentration of DMSO was 0.9%. All reactions performed in polypropylene 384-well plate. Each was a final volume of 0.02 ml. […] The beads were then re-suspended in elution buffer (1×PBS, 0.05% Tween 20, 0.5 μM non-biotinylated affinity ligand) and incubated at room temperature with shaking for 30 minutes. The kinase concentration in the eluates was measured by qPCR.
(§4) Dissociation constants (Kds) for test compound-kinase interactions are calculated by measuring the amount of kinase captured on the solid support as a function of the test compound concentration.

ALK4 (ACVR1B) = molecular target: T2, ALK4 (ACVR1B) (Homo sapiens, UniProt P36896); test: KINOMEscan affinity, competition binding
T2 construct: purchased Eurofins (KINOMEscan service)
T2 sequence (P36896 24-505): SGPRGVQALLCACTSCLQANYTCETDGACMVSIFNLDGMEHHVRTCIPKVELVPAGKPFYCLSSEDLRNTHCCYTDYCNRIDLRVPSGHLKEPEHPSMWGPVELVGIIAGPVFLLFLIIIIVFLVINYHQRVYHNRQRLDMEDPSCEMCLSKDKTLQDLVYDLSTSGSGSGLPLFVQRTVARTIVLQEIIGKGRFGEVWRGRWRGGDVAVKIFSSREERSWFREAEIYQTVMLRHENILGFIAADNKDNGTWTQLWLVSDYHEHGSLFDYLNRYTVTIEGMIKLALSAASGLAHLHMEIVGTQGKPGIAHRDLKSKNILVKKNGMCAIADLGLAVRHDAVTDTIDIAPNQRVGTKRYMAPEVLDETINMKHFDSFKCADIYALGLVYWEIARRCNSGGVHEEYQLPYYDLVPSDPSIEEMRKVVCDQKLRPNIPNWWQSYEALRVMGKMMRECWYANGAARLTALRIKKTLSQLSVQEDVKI
Description: as §1, §2, §3, §4

Cc1cccc(-c2nn3c(c2-c2ccnc4ccc(O)cc24)CCC3)n1 [compound of formula I, 4-(2-(6-methylpyridin-2-yl)-5,6-dihydro-4H-pyrrolo[1,2-b]pyrazol-3-yl)quinolin-6-ol]
efficacy at reducing the number of liver metastasis compared to galunisertib ([1]; FIG. 14, 1× equimolar doses): improved efficacy
survival rates compared to galunisertib ([1]; FIG. 15, 1× equimolar doses): higher survival rates
pIC50 [2]: 6.78
toxicity screens including genotoxicity (Genotoxicity screens): cleared
Selectivity against ALK5 (ALK5 (TGFBR1); ALK5 versus ALK5): 1
pKd (ALK5 (TGFBR1); KINOMEscan): 7.70
ALK5 binding affinity, times higher than Galunisertib (ALK5 (TGFBR1); versus published galunisertib data): 8.6 times
Selectivity improvement (ALK4 (ACVR1B); (I) versus Galunisertib): 1.4
Selectivity against ALK5 (ALK4 (ACVR1B); ALK4 versus ALK5): 0.7
